Where a name gives a salt, the structure may show the parent alone. Each block holds one molecule with its values, some of them ahead of it.
What was measured:
Settings in all cases: compounds 10 μM; miltefosine 10 μM or 1 μM
[1] = target: T1, CYP2D6 (Homo sapiens, UniProt P10635); assay: Cytochrome P450 inhibition assay (P450-Glo) CYP2D6; format: in vitro ADME
T1 construct: purchased Corning Inc; host or cells: baculovirus-infected insect cells
From the text: (§1) Cytochrome (CYP) P450 inhibition assay: These assays made use of microsomal preparations of CYP450 (1A2, 2C9, 2C19, 2D6 and 3A4) from baculovirus-infected insect cells (Corning Inc., Corning, NY, USA) and cytochrome c reductase (and cytochrome b5 for CYP450 3A4). For detection of CYP450 activity, the luminescence-based P450-Glo (Promega Corp., Madison, WI, USA) assay system was used that contained a luminogenic CYP450 substrate, lyophilized luciferin detection reagent and reconstitution buffer. The substrates were luciferin derivatives of CYP450-specific substrates that produce (4S)-4,5-dihydro-2-(6-hydroxybenzothiazolyl)-4-thiazolecarboxylic acid (D-luciferin) after cleavage by CYP450 (CYP450 3A4, luciferin-IPA; CYP450 2C19, luciferin-H EGE; CYP450 2C9, luciferin-H; CYP450 2D6, luciferin-ME EGE; CYP450 1A2, luciferin-1A2). CYP450 reactions were initiated by addition of the NADPH regeneration system to the enzyme–substrate mixture with the luciferin detection reagent stopping the reaction and the D-luciferin being converted to oxyluciferin under the production of light being proportional to the CYP450 activity. The CYP450 assays were performed using the Tecan Fluent liquid-handling automation platform (Tecan Group Ltd., Mannedorf, Switzerland) in the 384-well assay format. Compounds were added into an empty 384-well plate (100 nL/well in 1% v/v DMSO) using the Echo 550 Liquid Handler followed by the addition of 5 μL/well of the CYP450/substrate mixture and incubation for 30 min at 37 °C, after which the reaction was initiated by the addition of the 5 μL/well NADPH regeneration system. After a further 30-min incubation at 37 °C, the CYP450 reaction was stopped and the luciferase reaction was simultaneously initiated by addition of 10 μL/well of luciferin detection reagent, followed by an additional 30-min incubation at 37 °C. The luminescence signal was detected using an Infinite M1000 PRO plate reader (Tecan Group Ltd., Mannedorf, Switzerland). The NCs yielded 0% inhibition (1% v/v DMSO) and standard CYP450 specific inhibitors were used as positive controls, yielding 100% inhibition (CYP450 1A2, alpha-naphthoflavone; CYP450 2C9, sulfaphenazole; CYP450 2C19, troglitazone; CYP450 2D6, quinidine; CYP450 3A4, ketoconazole).
(§2) Data analysis: The screening data were obtained in triplicate and analysed using ActivityBase (IDBS, Guildford, UK), and outlier elimination in the control wells was performed using the 3-sigma method. Unless stated, dose–response experiments were performed in the 11-point format with the IC50 value, Hill slope, minimum signal and maximum signal for each dose–response curve obtained using a four-parameter logistic fit in the XE module of ActivityBase (IDBS).

[2] = target: T2, CYP1A2 (Homo sapiens, UniProt P05177); assay: Cytochrome P450 inhibition assay (P450-Glo) CYP1A2; format: in vitro ADME
T2 construct: purchased Corning Inc; host or cells: baculovirus-infected insect cells
T2 sequence (P05177 2-516 limits assumed): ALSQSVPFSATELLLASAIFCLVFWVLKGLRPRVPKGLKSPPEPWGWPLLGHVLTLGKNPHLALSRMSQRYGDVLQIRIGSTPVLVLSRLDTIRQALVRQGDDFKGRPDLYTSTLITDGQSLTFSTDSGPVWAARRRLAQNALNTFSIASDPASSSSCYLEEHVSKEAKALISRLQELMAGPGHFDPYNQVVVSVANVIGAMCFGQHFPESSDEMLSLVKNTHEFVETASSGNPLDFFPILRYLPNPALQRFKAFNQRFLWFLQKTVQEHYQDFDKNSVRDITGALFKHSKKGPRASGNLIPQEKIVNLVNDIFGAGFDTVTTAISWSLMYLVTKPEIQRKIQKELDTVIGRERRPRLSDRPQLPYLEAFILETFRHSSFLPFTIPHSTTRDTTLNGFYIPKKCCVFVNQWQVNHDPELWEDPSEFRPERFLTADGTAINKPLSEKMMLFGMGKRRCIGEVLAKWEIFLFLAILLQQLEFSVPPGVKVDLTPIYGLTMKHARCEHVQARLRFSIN
From the text: as §1, §2

[3] = target: T3, hERG (Homo sapiens, UniProt Q12809); assay: hERG cardiotoxicity assay (Predictor hERG fluorescence polarization); format: binding
T3 construct: purchased Thermo Fischer Scientific
Description: hERG cardiotoxicity assay: The Predictor® hERG fluorescence polarization assay (Thermo Fischer Scientific, Waltham, MA, USA) was used to test compounds for potential cardiotoxicity. To each well of the assay plate, 100 nL of the test/control compound was added followed by addition of 5 μL homogenized membrane solution (undiluted) and 5 μL of tracer (1 nM final concentration in the assay). The plates were incubated for 2 h at 25 °C in a humidity controlled incubator, and the fluorescence polarization was measured using an EnVision Multilabel 2103 Reader (PerkinElmer, Waltham, MA. USA). The NCs (0% inhibition) and positive controls with E-4031, a blocker of hERG-type potassium channels (yielding 100% inhibition), were used to normalize the raw data.
as §2

[4] = target: T4, CYP3A4 (Homo sapiens, UniProt P08684); assay: Cytochrome P450 inhibition assay (P450-Glo) CYP3A4; format: in vitro ADME
T4 construct: purchased Corning Inc; host or cells: baculovirus-infected insect cells
From the text: as §1, §2

T1 sequence (P10635 whole entry): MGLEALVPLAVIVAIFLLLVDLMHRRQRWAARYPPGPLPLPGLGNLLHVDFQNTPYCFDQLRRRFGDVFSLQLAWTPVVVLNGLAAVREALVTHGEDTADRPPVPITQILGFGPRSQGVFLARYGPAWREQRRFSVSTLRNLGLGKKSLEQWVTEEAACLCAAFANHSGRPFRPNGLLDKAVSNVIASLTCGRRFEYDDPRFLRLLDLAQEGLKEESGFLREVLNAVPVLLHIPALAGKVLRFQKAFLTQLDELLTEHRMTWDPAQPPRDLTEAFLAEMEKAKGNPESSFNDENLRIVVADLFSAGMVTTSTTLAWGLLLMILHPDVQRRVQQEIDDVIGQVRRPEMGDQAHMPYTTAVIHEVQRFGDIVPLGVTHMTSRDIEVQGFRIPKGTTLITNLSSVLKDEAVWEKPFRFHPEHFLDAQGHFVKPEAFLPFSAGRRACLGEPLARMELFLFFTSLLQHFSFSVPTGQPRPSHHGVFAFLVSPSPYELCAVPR
T3 sequence (Q12809 whole entry): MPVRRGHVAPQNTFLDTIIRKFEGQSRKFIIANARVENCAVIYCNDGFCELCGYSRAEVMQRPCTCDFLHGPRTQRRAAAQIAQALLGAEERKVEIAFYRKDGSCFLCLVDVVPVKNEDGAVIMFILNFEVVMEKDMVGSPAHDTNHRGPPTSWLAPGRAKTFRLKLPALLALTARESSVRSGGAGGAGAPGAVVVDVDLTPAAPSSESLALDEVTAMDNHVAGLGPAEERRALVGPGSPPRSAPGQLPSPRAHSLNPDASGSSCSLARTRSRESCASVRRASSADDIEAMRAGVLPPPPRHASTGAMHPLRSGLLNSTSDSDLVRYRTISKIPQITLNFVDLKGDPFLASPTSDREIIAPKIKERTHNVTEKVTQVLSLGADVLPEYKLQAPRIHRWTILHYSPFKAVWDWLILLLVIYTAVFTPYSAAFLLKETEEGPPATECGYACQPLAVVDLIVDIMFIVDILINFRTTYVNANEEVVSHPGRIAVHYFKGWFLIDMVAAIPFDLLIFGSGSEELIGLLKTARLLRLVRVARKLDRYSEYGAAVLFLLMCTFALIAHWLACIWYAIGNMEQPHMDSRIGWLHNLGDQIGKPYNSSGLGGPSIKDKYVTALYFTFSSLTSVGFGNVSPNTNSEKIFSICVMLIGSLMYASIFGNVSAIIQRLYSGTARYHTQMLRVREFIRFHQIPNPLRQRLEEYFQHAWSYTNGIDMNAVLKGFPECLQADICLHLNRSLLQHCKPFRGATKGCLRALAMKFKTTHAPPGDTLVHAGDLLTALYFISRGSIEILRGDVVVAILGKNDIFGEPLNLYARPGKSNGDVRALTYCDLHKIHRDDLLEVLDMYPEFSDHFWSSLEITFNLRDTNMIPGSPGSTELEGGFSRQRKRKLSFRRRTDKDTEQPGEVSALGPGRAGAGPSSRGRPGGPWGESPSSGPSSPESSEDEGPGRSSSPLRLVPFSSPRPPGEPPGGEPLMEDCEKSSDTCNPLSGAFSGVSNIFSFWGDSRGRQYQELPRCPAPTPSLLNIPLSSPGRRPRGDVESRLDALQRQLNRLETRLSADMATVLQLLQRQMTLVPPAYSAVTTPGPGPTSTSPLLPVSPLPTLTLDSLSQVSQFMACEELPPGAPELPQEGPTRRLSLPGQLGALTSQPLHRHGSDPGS
T4 sequence (P08684 2-503 limits assumed): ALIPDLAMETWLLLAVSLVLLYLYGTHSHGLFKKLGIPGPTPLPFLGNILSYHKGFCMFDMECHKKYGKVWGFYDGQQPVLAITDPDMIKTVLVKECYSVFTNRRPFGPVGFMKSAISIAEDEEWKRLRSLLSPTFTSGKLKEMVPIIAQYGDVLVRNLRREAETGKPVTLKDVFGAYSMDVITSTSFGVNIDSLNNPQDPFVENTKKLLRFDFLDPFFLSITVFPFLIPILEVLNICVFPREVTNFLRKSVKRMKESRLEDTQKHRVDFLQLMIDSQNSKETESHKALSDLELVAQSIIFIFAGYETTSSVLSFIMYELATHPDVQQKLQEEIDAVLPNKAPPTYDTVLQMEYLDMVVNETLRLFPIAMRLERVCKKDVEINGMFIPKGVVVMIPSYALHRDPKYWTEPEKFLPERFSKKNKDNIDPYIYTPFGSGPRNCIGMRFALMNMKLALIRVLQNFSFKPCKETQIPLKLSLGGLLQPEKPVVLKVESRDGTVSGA

SMILES: CCCCCc1cn(CCCCCCCCCCCOP(=O)([O-])OCC[N+](C)(C)C)nn1 [Compound 25, 11-(4-pentyl-1H-1,2,3-triazol-1-yl)undecyl (2-(trimethylammonio)ethyl) phosphate inner salt]
% inhibition ± SD at 10 μΜ CYP2D6 [1]: –37.71%
% inhibition ± SD at 10 μΜ CYP1A2 [2]: –20.41%
% inhibition ± SD at 10 μΜ hERG [3]: –7.70%
% inhibition ± SD at 10 μΜ CYP3A4 [4]: –20.13%

SMILES: C[N+](C)(C)CCOP(=O)([O-])OCCCCCCCCCCCn1cc(CC2CCCC2)nn1 [Compound 28, 11-(4-(cyclopentylmethyl)-1H-1,2,3-triazol-1-yl)undecyl (2-(trimethylammo nio)ethyl) phosphate inner salt]
% inhibition ± SD at 10 μΜ CYP2D6 [1]: –56.57%
% inhibition ± SD at 10 μΜ CYP1A2 [2]: –13.84%
% inhibition ± SD at 10 μΜ hERG [3]: –3.64%
% inhibition ± SD at 10 μΜ CYP3A4 [4]: –33.70%

SMILES: C[N+](C)(C)CCOP(=O)([O-])OCCCCCCCCCCCn1cc(CC2CCCCC2)nn1 [Compound 29, 11-(4-(cyclohexylmethyl)-1H-1,2,3-triazol-1-yl)undecyl (2-(trimethylammonio)ethyl) phosphate inner salt]
% inhibition ± SD at 10 μΜ CYP2D6 [1]: –46.97%
% inhibition ± SD at 10 μΜ CYP1A2 [2]: –28.56%
% inhibition ± SD at 10 μΜ hERG [3]: –4.90%
% inhibition ± SD at 10 μΜ CYP3A4 [4]: –33.59%

% inhibition ± SD at 10 μΜ CYP2D6 [1]: 11.06%
% inhibition ± SD at 10 μΜ CYP1A2 [2]: 13.80%
% inhibition ± SD at 10 μΜ CYP3A4 [4]: –7.33%
SMILES: C[N+](C)(C)CCOP(=O)([O-])OCCCCCn1cc(CCCCCCCCNC(=O)OCc2ccccc2)nn1 [Compound 31, 5-(4-(8-(((benzyloxy)carbonyl)amino)octyl)-1H-1,2,3-triazol-1-yl)pentyl (2-(trimethylammonio)ethyl) phosphate inner salt]
% inhibition ± SD at 10 μΜ hERG [3]: –6.43%

SMILES: C[N+](C)(C)CCOP(=O)([O-])OCCCCCCCCCCCn1cc(CCCCCCCCNC(=O)OCc2ccccc2)nn1 [Compound 32, 11-(4-(8-(((benzyloxy)carbonyl)amino)octyl)-1H-1,2,3-triazol-1-yl)undecyl (2-(trimethylammonio)ethyl) phosphate inner salt]
% inhibition ± SD at 10 μΜ CYP1A2 [2]: 12.02%

SMILES: C[N+](C)(C)CCCOP(=O)([O-])OCCCCCCCCCCCn1cc(CC2CCCCC2)nn1 [Compound 33, 11-(4-(cyclohexylmethyl)-1H-1,2,3-triazol-1-yl)undecyl (3-(trimethylammonio)propyl) phosphate inner salt]
% inhibition ± SD at 10 μΜ CYP2D6 [1]: 9.87±6.48%
% inhibition ± SD at 10 μΜ CYP1A2 [2]: 15.23%
% inhibition ± SD at 10 μΜ hERG [3]: 16.60 ± 2.64%
% inhibition ± SD at 10 μΜ CYP3A4 [4]: 7.61 ± 9.09%

SMILES: C[N+](C)(C)CCOP(=O)([O-])OCCCCCCCCCCCn1cc(CCCCCCCCC(=O)O)nn1 [Compound 34, 11-(4-(8-carboxyoctyl)-1H-1,2,3-triazol-1-yl)undecyl (2-(trimethylammonio)ethyl) phosphate inner salt]
% inhibition ± SD at 10 μΜ CYP2D6 [1]: 23.08%
% inhibition ± SD at 10 μΜ CYP1A2 [2]: –3.73%
% inhibition ± SD at 10 μΜ CYP3A4 [4]: 19.27%

% inhibition ± SD at 10 μΜ CYP2D6 [1]: 7.26%
% inhibition ± SD at 10 μΜ CYP1A2 [2]: 9.42%
% inhibition ± SD at 10 μΜ CYP3A4 [4]: –8.64%
SMILES: C[N+](C)(C)CCOP(=O)([O-])OCCCCCn1cc(CCCCCCCCN)nn1 [Compound 35, 5-(4-(8-aminooctyl)-1H-1,2,3-triazol-1-yl)pentyl (2-(trimethylammonio)ethyl) phosphate inner salt]
% inhibition ± SD at 10 μΜ hERG [3]: 0.10%

SMILES: CCCCCCCCCCc1cc(CCCCCCCCCCOP(=O)([O-])OCC[N+](C)(C)C)no1 [Compound 41, 10-(5-decylisoxazol-3-yl)decyl (2-(trimethylammonio)ethyl) phosphate inner salt]
% inhibition ± SD at 10 μΜ CYP1A2 [2]: 10.86%

SMILES: CCCCCCCCc1noc(CCCCCOP(=O)([O-])OCC[N+](C)(C)C)n1 [Compound 53, 5-(3-octyl-1,2,4-oxadiazol-5-yl)pentyl (2-(trimethylammonio)ethyl) phosphate inner salt]
% inhibition ± SD at 10 μΜ CYP2D6 [1]: –26.41%
% inhibition ± SD at 10 μΜ CYP1A2 [2]: 20.03%
% inhibition ± SD at 10 μΜ hERG [3]: 8.95%
% inhibition ± SD at 10 μΜ CYP3A4 [4]: –12.40%

SMILES: CCCCCCCCc1noc(CCCCCCCCCCOP(=O)([O-])OCC[N+](C)(C)C)n1 [Compound 54, 10-(3-octyl-1,2,4-oxadiazol-5-yl)decyl (2-(trimethylammonio)ethyl) phosphate inner salt]
% inhibition ± SD at 10 μΜ CYP2D6 [1]: 6.07%
% inhibition ± SD at 10 μΜ CYP1A2 [2]: 9.37%
% inhibition ± SD at 10 μΜ hERG [3]: 17.93%
% inhibition ± SD at 10 μΜ CYP3A4 [4]: 13.88%

SMILES: CCCCCCCc1nnc(CCCCCCCCCCOP(=O)([O-])OCC[N+](C)(C)C)o1 [Compound 65, 10-(5-heptyl-1,3,4-oxadiazol-2-yl)decyl (2-(trimethylammonio)ethyl) phosphate inner salt]
% inhibition ± SD at 10 μΜ CYP2D6 [1]: –30.44%
% inhibition ± SD at 10 μΜ CYP1A2 [2]: 18.05%
% inhibition ± SD at 10 μΜ hERG [3]: 8.64%
% inhibition ± SD at 10 μΜ CYP3A4 [4]: –2.44%

SMILES: CCCCCCCCCCCc1nnc(CCCCCCCCCCOP(=O)([O-])OCC[N+](C)(C)C)o1 [Compound 66, 2-(trimethylammonio)ethyl (10-(5-undecyl-1,3,4-oxadiazol-2-yl)decyl) phosphate inner salt]
% inhibition ± SD at 10 μΜ CYP1A2 [2]: 12.37%
% inhibition ± SD at 10 μΜ hERG [3]: 22.98%

SMILES: CCCCCCCCCCCCCCCCOP(=O)([O-])OCC[N+](C)(C)C [Miltefosine, hexadecylphosphocholine, reference compound]
% inhibition ± SD at 10 μΜ CYP2D6 [1]: 30.83%
% inhibition ± SD at 10 μΜ CYP1A2 [2]: –20.62%
% inhibition ± SD at 10 μΜ hERG [3]: –16.92%
% inhibition ± SD at 10 μΜ CYP3A4 [4]: 8.39%
